One series has as its system CT26 colon cancer. In words: CT26 colon cancer model. The format is in vivo, mouse. The conditions noted are these: CT26 subcutaneous tumors.
The next series has as its system M2 macrophage markers. The series can be described thus: M2 macrophage marker expression with or without PDL-1 antibody (FIG. 42). Type of series: in vivo.
The nature of series [1]: Dose-exposure proportionality (FIG. 44). The conditions noted are these: in vivo.
For series [2], the system named is T cell activation (IFN-γ in response to ConA). In words: T cell activation in human whole blood (Con-A, IFN-γ readout). Type of series: cell-based. The conditions noted are these: 24 hours, read-out: IC50, T cell activation as measured by inhibition of IFN-γ. The procedure:
The purpose of this study is to evaluate the effect of various antigens (Con-A) in T cell activation in Human Whole Blood vs. 1:1 Diluted Blood using test compounds at 24 hour time-point.
T-cell Activation Media includes RPMI-1000 ml, MEM NEAA-10 ml, Sodium Pyruvate (100 mM)-10 ml, Pen Strep-10 ml, 2-Mercaptoethanol-1 ml, and FBS-100 ml. 100 ul of whole blood were plated in 96 well plate. Used only the 60 inside wells and filled the outside with media or PBS. Diluted human whole blood with 5% Serum RPMI 1640 1:1 and plate 100 ul in 96 well plate. Used only the 60 inside wells and filled the outside with media or PBS.
The compound was diluted using DMSO (Sigma hybridmax). For 1000 nM highest concentration starting from a 10 mM stock, added 300 ul of DMSO into deep well plates. To the highest concentration add 10 ul of 10 mM compound stock.
A media plate was prepared from DMSO plate by taking 100 ul and go into 900 ul media in new deep well plate, taping plate, and putting on mixer for 5 minutes.
The rested cell plates were removed from incubator. Added 12 uL of diluted compound from media plate (final DMSO is 1%), and incubated for 45 minutes.
Con-A was prepared as follows: 200 ul stock into 1 ml Media, 100 ul of that into 1 ml Media, 100 ul of that into 1 ml Media. […] This was analyzed after 24 Hours.
10× stock in media, added 12 ul per well. […] Analyzed with multiplex elisa from MSD. […]

Series [3] has as its system differentiation of myeloid cells into M2 TAMs. The series can be described thus: Murine M2 TAM differentiation (ARG1 levels). Type of series: cell-based, mouse. From the text: High ARG1 (Arginase-1) levels indicate that myeloid cells are differentiating into M2 macrophages, so lower ARG1 levels relative to a control indicate interference with differentiation into M2 macrophages. Expression of Arginase-1 depletes the tumor microenvironment of arginine, thereby promoting T cell death and NK cell inhibition. Schmid et. al., Proceedings: AACR 103rd Annual Meeting 2012, Cancer Research: Apr. 15, 2012; Volume 72, Issue 8, Supplement 1. […] M2 TAMs promote cancer cell survival (FIG. 23).

The subject of series [4] is M1 macrophage differentiation. In words: M1 macrophage differentiation. Type of series: cell-based. The conditions noted are these: data not shown. The method, then: A similar experiment was performed on M1 differentiation.
The subject of a further series is CT26 colon carcinoma. The series can be described thus: CT26 allograft colon cancer model. The format is in vivo, mouse. The source says:
CT26 is an N-nitroso-N-methylurethane-(NNMU) induced, undifferentiated mouse colon carcinoma cell line. It is cloned to generate the cell line designated CT26.WT (ATCC CRL-2638). The syngeneic CT26 colon cancer model is established by subcutaneous implantation of CT26 cells into BALB/c mice. This model has been extensively used to study the anti-tumor activity of immunotherapies (Yu et al., Clinical Cancer Research, 2010; Daraiswamy et al., Cancer Research, 2013). […] In some embodiments, a compound provided herein can be administered alone or in combination with an anti-PD-L1.
CT26 is an N-nitroso-N-methylurethane-(NNMU) induced, undifferentiated colon carcinoma cell line. It was cloned to generate the cell line designated CT26.WT (ATCC catalog number CRL-2638). 5-6 week old female, Balb/c mice (Jackson Labs) were implanted subcutaneously with 5×10^5 CT26 cells in 200 μl PBS. CT26 cells were cultured in DMEM supplemented with 10% FBS. Dosing commenced when tumors reached an average volume of […]. Administration of the compounds was performed according to the following Table:
Isotype control (Ultra-LEAF purified rat IgG2b, k isotype control, clone RTK4530, Lot B180477, Biolegend, Cat #70640)
Anti-PD-L1 antibody (Ultra-LEAF purified anti-mouse CD274-B7H1, PD-L1-, clone 10F9G2, Lot B178331, Biolegend, Cat #124318) […]
Body weights and tumor volumes were measured three times per week.

Series [5] is described as follows: Stability in simulated gastric fluid. Type of series: physicochemical. The conditions noted are these: 38° simulated gastric fluid. The source says: The phyiscochemical properties of Compound BB are drug-like, and suitable for use of the compound as a drug.
In the next series the test system is Cytochrome P450 isoforms. In words: Cytochrome P450 inhibition (ADME characteristics, Table 25). The conditions noted are these: main Cytochrome P450 isoforms. Type of series: in vitro ADME. From the text: These properties indicate the compound's suitability for in vivo administration.
A short description of series [6]: Oral pharmacokinetics of Compound BB in monkey. The conditions noted are these: 5 mg/kg oral. The format is in vivo. From the text:
Compound BB's oral exposure is high in rat, dog and monkey. Good oral bioavailability and low clearance in rodent and non-rodent animal species results in high oral exposure.

The test system of series [7] is CXCL12 stimulated pAKT S473 in T cells and monocytes. In words: Ex vivo whole blood CXCL12 stimulation of phospho-AKT, LLC-bearing mice. The format is in vivo, mouse. The conditions noted are these: LLC-bearing mice, 3, 7.5 or 15 mg/kg QD PO 12 days, 2 h post dose. The method, then:
C57 BL/6 Albino mice were implanted with 1×10^6 cells in a SC injection in the hind flank. The cell implant material was generated from brei that was passaged from mouse to mouse. Treatment started when tumors were between 160-180 mm^3. Mice were dosed for 12 days, QD, PO with vehicle, 15, 7.5 or 3 mg/kg. On day 12 mice were dosed and terminal blood was collected 2 h post dose by cardiac stick collection. Blood was placed in EDTA K2 collection tube and stored at room temp for PD analysis.
Blood from each animal was aliquotted into 2 plates and warmed to 37° C. degrees. PBS was added to one plate as an unstimulated control. Murine CXCL12/SDF-1 was added to the second plate to a final concentration of 800 ng/mL and plate was returned to the 37° C. degree block. After 2 minutes of incubation, blood was lysed and fixed using paraformaldehyde. Samples were washed and frozen until flow cytometric analysis. T cells were gated using an antibody to CD3 and monocytes were gated as LY6G^− LY6C^high. Intracellular pAKT S473 was measured and percent positive was used for graphing.

The next series concerns Human hep. The series can be described thus: Human hep viability (ADME characteristics, Table 25). The format is cell-based.

Consider one molecule from US10675286B2, “Heterocyclic compounds and uses thereof” (Infinity Pharmaceuticals, Inc., priority 2014, dated 2020).

pIC50: −log10 of the molar value. Entries after “also recorded” stand apart in the source; their conditions may differ.

As to `C[C@H](NC(=O)c1c(N)nn2cccnc12)c1cc2cccc(C#Cc3cnn(C)c3)c2c(=O)n1-c1ccccc1` [Compound BB], the “Monocytic iMCs in tumor” value in the series with CT26 colon cancer was “decreased”. Moreover, in the series with M2 macrophage markers, the “M2 macrophage marker ARG-1” value is given as “reduced” and the “M2 macrophage marker VEGF” value is “reduced”. Also, the dose-exposure relationship result in [1] is listed as “dose-exposure proportionality”. Further, in series [2], the pIC50 is 5.60. The “Differentiation of myeloid cells into M2 TAMs (ARG1 levels, FIG. 22)” value in [3] was “inhibited M2 TAM differentiation much more effectively than PI3K-δ inhibitor”. Further, the M1 macrophage differentiation result in [4] is “did not have an observable effect”. Also, in the series with CT26 colon carcinoma (CT26 model, 5-9 day time frame), the “MDSC expansion after cyclophosphamide treatment (FIG. 28)” value was “decreased”. In the series on CT26 colon carcinoma (CT26 subcutaneous tumors), the “Monocytic iMCs (flow cytometry, FIG. 38B)” value is on record as “monocytic iMCs were decreased”. Besides, the “Stability in simulated gastric fluid” value in series [5] is over 4 h. For the same molecule, the CYP inhibition entry with Cytochrome P450 isoforms is recorded as “does not substantially inhibit CYP; also recorded: low potential for reversible inhibition”. Also, in [6], the “Oral exposure (plasma concentrations within 24 hours, FIG. 43)” value is “high”. Also, in series [7], the “Ex vivo whole blood CXCL12 stimulation of phospho-AKT in T cells (FIG. 58)” value is reported as “inhibits the ex vivo whole blood stimulation of phosphor-AKT in T cells” and the “Ex vivo whole blood CXCL12 stimulation of phospho-AKT in monocytes (FIG. 59)” value was “inhibits the ex vivo whole blood stimulation of phosphor-AKT in monocytes”. The molecule also gave a pIC50 in the series with Human hep of 4.60 to 5.00.
